US12552796B2, “EED inhibitor, and preparation method therefor and use thereof” (SHANGHAITECH UNIVERSITY, priority 2019, dated 2026)
Like-named read-outs stand apart in the source and are kept apart here.

Key:
WSU-DLCL2 cells = experiment: Cell proliferation assay, WSU-DLCL2; type: cell-based; conditions: Homo sapiens
Description: (§1) Human B-cell non-Hodgkin's lymphoma cells WSU-DLCL2, Karpas422 and Pfeiffer were cultured in cell culture flasks in a sterile incubator with 95% relative humidity and 5% CO2 at 37° C. The medium was RPMI-1640 (Gibco, product No. 31800022) containing 15% fetal bovine serum (FBS, Gibco, product No. 10099141) and 0.1% penicillin/streptomycin solution (P/S). In order to assay the effects of compounds on cell proliferation, cells in exponential growth phase were seeded into a 12-well plate (Nunc, product No. 150628) with 1 mL of medium per well, wherein WSU-DLCL2 and Karpas422 were seeded at a density of 1×10^5 cells/well, and Pfeiffer was seeded at a density of 2×10^5 cells/well. At the same time, different concentrations of compounds were added to the wells that had seeded with cells (6 concentrations were set for each compound at 3-fold serial dilution), and the final concentration of DMSO was 0.1%. After that, the number of viable cells was determined by Vi-CELL (Beckman Coulter) for WSU-DLCL2 and Pfeiffer every 3 days, and for Karpas422 on days 4, 7, and 11, respectively. The cells counted each time were seeded into a new 12-well plate at the same density, and supplemented with fresh medium to 1 mL. Different concentrations of compounds were added at the same time. WSU-DLCL2 and Pfeiffer were cultured to the 9th day, and Karpas422 was cultured to the 14th day. Cell data were collected uniformly, and analyzed with GraphPad prisim5. Dose curves were fitted, and IC50 values of the assay compounds were obtained.

[1] = tested on: cellular H3K27 methylation; experiment: Cellular H3K27 methylation assay (Western blot of H3K27me3 in HeLa cells); type: cell-based; conditions: Homo sapiens, 72 h, read-out: PD IC50
[2] = Pharmacokinetic study in rats; type: in vivo, SD rats; conditions: rat; for AUC(0-inf) / Cmax / Tmax / clearance / half-life / MRT inf: male, SD, plasma; for MRT inf: read-out: MRT0-∞
Description: Six SPF SD rats, male, weighing 180-220 g, were randomly divided into 2 groups with 3 rats in each group. The compounds of the present disclosure were administered by oral gavage (PO) and intravenous injection (IV), respectively, and the assay compounds were formulated with a vehicle (5% DMSO+10% Solutol+85% pH 4.65 Acetate buffer).
Dosage: 1 mg/kg for intravenous injection and 2 mg/kg for oral administration.
Dosing volume: 5 mL/kg for intravenous injection and 10 mL/kg for oral administration.
The oral administration group was fasted overnight (10-14 h) before the assay, and drank water freely. After 4 hours of administration, they were fed uniformly. They were weighed before administration, and the dosage was calculated according to the body weight.
Intravenous administration: 0.083, 0.25, 0.5, 1, 2, 4, 6, 8, 10 and 24 h after administration;
Oral gavage administration: 0.25, 0.5, 1, 2, 4, 6, 8, 10, 12 and 24 h after administration;
Blood was collected from the jugular vein of rats at the above set time points, about 0.2 mL each time. The blood was anticoagulated with heparin sodium, placed on ice after collection, and centrifuged within 1 hour to separate the plasma (centrifugation conditions: 6800 g, 6 minutes, 2-8° C.). Plasma samples were stored in a −80° C. freezer prior to analysis.
The concentration of each compound in rat plasma was determined by LC/MS/MS method.
Through the plasma drug concentration data at different time points, pharmacokinetic parameters were calculated using Phoenix WinNonlin 7.0, thereby providing parameters such as AUC0-t, AUC0-∞, MRT0-∞, Cmax, Tmax, and T1/2 and mean and standard deviation thereof.

Karpas422 cells = experiment: Cell proliferation assay, Karpas422; type: cell-based; conditions: Homo sapiens, KARPAS-422; Karpas422 cells, cultured to the 14th day; read-out: Anti-proliferation IC50
Description: as §1

[3] = WSUDLCL2, WSU-DLCL2 cells, cultured to the 9th day, read-out: Anti-proliferation IC50
[4] = HeLa cells, 3 days, H3K27me3 level by Western blot

Structure (SMILES)	IC50 [1, 4] [µM]	IC50 (WSU-DLCL2 cells; [3]) [µM]	other results
Fc1ccc2c(c1CNc1ncc(OCC3CCOCC3)c3nncn13)CCO2 [HJM-020]	0.0398	0.0485	–
Fc1ccc2c(c1CNc1ncc(OCC3CCO3)c3nncn13)CCO2 (stereo not drawn) [HJM-103]	0.0942	0.148	–
COCCOc1cnc(NCc2c(F)ccc3c2CCO3)n2cnnc12 [HJM-137]	0.062	0.0514	–
CC1(COc2cnc(NCc3c(F)ccc4c3CCO4)n3cnnc23)COC1 [HJM-105]	0.0294	0.0354	AUC(0-inf) ([2]; IV, 1 mg/kg): 1.91 µg·h/mL; Cmax ([2]; IV, 1 mg/kg): 1.6 µg/mL; Tmax ([2]; IV, 1 mg/kg): 0.08 h; clearance ([2]; IV, 1 mg/kg): 0.53 L/h/kg; half-life ([2]; IV, 1 mg/kg): 1.82 h; MRT inf ([2]; IV, 1 mg/kg): 1.56 h; AUC(0-inf) ([2]; PO, 2 mg/kg): 1.79 µg·h/mL; Cmax ([2]; PO, 2 mg/kg): 0.342 µg/mL; Tmax ([2]; PO, 2 mg/kg): 2.83 h; half-life ([2]; PO, 2 mg/kg): 1.41 h; MRT inf ([2]; PO, 2 mg/kg): 3.29 h; F ([2]; PO, 2 mg/kg): 47.22%
N#CCOc1cnc(NCc2c(F)ccc3c2CCO3)n2cnnc12 [HJM-145]	0.0328	0.0473	–
CC(F)C(=O)Nc1cnc(NCc2c(F)ccc3c2CCO3)n2cnnc12 (stereo not drawn) [HJM-072]	0.03	0.12	–
CN(C)C(=O)c1cnc(NCc2c(F)ccc3c2CCO3)n2cnnc12 [HJM-025]	–	–	IC50 (WSU-DLCL2 cells; WSUDLCL2, read-out: Anti-proliferation IC50): 0.0264 µM; IC50 ([1]; HeLa): 0.0433 µM
O=C(CC1CC1)Nc1cnc(NCc2c(F)ccc3c2CCO3)n2cnnc12 [HJM-031]	0.0396	0.0806	–
CC(C)Oc1cnc(NCc2c(F)ccc3c2CCO3)n2cnnc12 [HJM-015]	0.0254	0.115	–
O=C(Nc1cnc(NCc2c(F)ccc3c2CCO3)n2cnnc12)c1ccccc1 [HJM-042]	0.0605	0.082	–
CS(=O)(=O)c1ccc(-c2cnc(NCc3ccco3)n3cnnc23)cc1 [EED226, reference compound]	0.22	0.131	IC50 (Karpas422 cells): 0.123 µM
COCCCc1cnc(NCc2c(F)ccc3c2CCO3)n2cnnc12 [HJM-011]	0.0338	0.0863	–
CN(C)CCC(=O)Nc1cnc(NCc2c(F)ccc3c2CCO3)n2cnnc12 [HJM-082]	0.0299	0.124	–
COCCN1CC(C(=O)Nc2cnc(NCc3c(F)ccc4c3CCO4)n3cnnc23)C1 [HJM-088]	0.601	–	–
COCC(=O)Nc1cnc(NCc2c(F)ccc3c2CCO3)n2cnnc12 [HJM-083]	0.0285	0.028	–
Fc1ccc2c(c1CNc1ncc(C3CCCO3)c3nncn13)CCO2 (stereo not drawn) [HJM-003]	0.0543	0.131	–
O=C(COc1cnc(NCc2c(F)ccc3c2CCO3)n2cnnc12)C1CC1 [HJM-146]	0.15	–	–
CN1CCCC(c2cnc(NCc3c(F)ccc4c3CCO4)n3cnnc23)C1 (stereo not drawn) [HJM-053]	0.0288	–	–
OC1CCC(Oc2cnc(NCc3c(F)ccc4c3CCO4)n3cnnc23)CC1 (stereo not drawn) [HJM-121]	0.494	–	–
CN(C(=O)CC1CC1)c1cnc(NCc2c(F)ccc3c2CCO3)n2cnnc12 [HJM-073]	0.0393	0.0294	–
COCCOCC(=O)Nc1cnc(NCc2c(F)ccc3c2CCO3)n2cnnc12 [HJM-084]	0.084	0.0869	–
COc1cccc(F)c1CNc1ncc(/C=C/CN2CCCCC2)c2nncn12 [HJM-049]	0.296	–	–
O=C(Nc1cnc(NCc2c(F)ccc3c2CCO3)n2cnnc12)c1cccnc1 [HJM-043]	–	–	IC50 ([1]; HeLa): 0.115 µM
Fc1ccc2c(c1CNc1ncc(NCCN3CCOCC3)c3nncn13)CCO2 [HJM-023]	1.16	–	–

Now from value to compound, other results behind:

IC50 [1, 4] [µM]	Structure (SMILES)	IC50 (WSU-DLCL2 cells; [3]) [µM]	other results
0.0294	Fc1ccc2c(c1CNc1ncc(OCC3CC3)c3nncn13)CCO2 [HJM-019]	0.072	–
0.0153	CCN(C(=O)C1CC1)c1cnc(NCc2c(F)ccc3c2CCO3)n2cnnc12 [HJM-079]	0.0368	AUC(0-inf) ([2]; IV, 1 mg/kg): 0.857 µg·h/mL; Cmax ([2]; IV, 1 mg/kg): 0.75 µg/mL; Tmax ([2]; IV, 1 mg/kg): 0.08 h; clearance ([2]; IV, 1 mg/kg): 1.17 L/h/kg; half-life ([2]; IV, 1 mg/kg): 0.92 h; MRT inf ([2]; IV, 1 mg/kg): 1.1 h; AUC(0-inf) ([2]; PO, 2 mg/kg): 0.706 µg·h/mL; Cmax ([2]; PO, 2 mg/kg): 0.222 µg/mL; Tmax ([2]; PO, 2 mg/kg): 0.42 h; half-life ([2]; PO, 2 mg/kg): 1.72 h; MRT inf ([2]; PO, 2 mg/kg): 2.94 h; F ([2]; PO, 2 mg/kg): 40.87%
0.0446	CCOCCc1cnc(NCc2c(F)ccc3c2CCO3)n2cnnc12 [HJM-010]	0.0778	–
0.0647	O=C(Nc1cnc(NCc2c(F)ccc3c2CCO3)n2cnnc12)C1CCCO1 (stereo not drawn) [HJM-037]	0.115	–
0.0259	O=C(CCC(F)(F)F)Nc1cnc(NCc2c(F)ccc3c2CCO3)n2cnnc12 [HJM-033]	0.0947	–
0.0577	CC(Oc1cnc(NCc2c(F)ccc3c2CCO3)n2cnnc12)C1COC1 (stereo not drawn) [HJM-106]	0.0398	–
0.068	CN1CC(Oc2cnc(NCc3c(F)ccc4c3CCO4)n3cnnc23)C1 [HJM-114]	0.211	–
0.0732	COCCN(C)C(=O)c1cnc(NCc2c(F)ccc3c2CCO3)n2cnnc12 [HJM-152]	0.106	–
0.0543	Fc1ccc2c(c1CNc1ncc(OC3COC3)c3nncn13)CCO2 [HJM-100]	0.0548	–
0.814	CS(=O)(=O)c1ccc(C(=O)Nc2cnc(NCc3c(F)ccc4c3CCO4)n3cnnc23)cc1 [HJM-093]	–	–
0.223	O=C(Nc1cnc(NCc2c(F)ccc3c2CCO3)n2cnnc12)c1cnco1 [HJM-094]	–	–
0.792	CNCCOc1cnc(NCc2c(F)ccc3c2CCO3)n2cnnc12 [HJM-118]	–	–
0.0995	COCCC(=O)Nc1cnc(NCc2c(F)ccc3c2CCO3)n2cnnc12 [HJM-034]	–	–
0.178	O=C(Nc1cnc(NCc2c(F)ccc3c2CCO3)n2cnnc12)c1ncco1 [HJM-095]	–	–
0.0397	Fc1ccc2c(c1CNc1ncc(OCc3ccccn3)c3nncn13)CCO2 [HJM-142]	–	–
0.242	Cc1ncccc1COc1cnc(NCc2c(F)ccc3c2CCO3)n2cnnc12 [HJM-021]	–	–
0.0487	Fc1ccc2c(c1CNc1ncc(/C=C/CN3CCCCC3)c3nncn13)CCO2 [HJM-006]	–	–
1.59	O=C(Nc1cnc(NCc2c(F)ccc3c2CCO3)n2cnnc12)N1CCOCC1 [HJM-099]	–	–
0.0263	Fc1ccc2c(c1CNc1ncc(OC3CCC3)c3nncn13)CCO2 [HJM-017]	0.113	–
0.138	O=C1CCCCN1c1cnc(NCc2c(F)ccc3c2CCO3)n2cnnc12 [HJM-068]	–	–
0.187	O=C(Nc1cnc(NCc2c(F)ccc3c2CCO3)n2cnnc12)C1CCOC1 (stereo not drawn) [HJM-038]	–	–
0.0498	COCCCOc1cnc(NCc2c(F)ccc3c2CCO3)n2cnnc12 [HJM-138]	0.0432	–
0.13	Fc1ccc2c(c1CNc1ncc(OCc3cncnc3)c3nncn13)CCO2 [HJM-131]	–	–
0.0505	CS(=O)(=O)N1CCC(c2cnc(NCc3c(F)ccc4c3CCO4)n3cnnc23)C1 (stereo not drawn) [HJM-050]	–	–
0.0988	Fc1ccc2c(c1CNc1ncc(C3CC3)c3nncn13)CCO2 [HJM-002]	–	–
0.0395	Fc1ccc2c(c1CNc1ncc(OCC3CCCO3)c3nncn13)CCO2 (stereo not drawn) [HJM-101]	0.0526	–
0.256	O=C(CCc1ccccc1)Nc1cnc(NCc2c(F)ccc3c2CCO3)n2cnnc12 [HJM-089]	–	–
0.0895	O=C(c1cnc(NCc2c(F)ccc3c2CCO3)n2cnnc12)N1CCOCC1 [HJM-027]	0.058	–
0.141	Fc1ccc2c(c1CNc1ncc(C3CCN(C4COC4)CC3)c3nncn13)CCO2 [HJM-060]	–	–
